Test results from US12172999B2, “Polymorphs” (SYNGENTA PARTICIPATIONS AG, priority 2016, dated 2024).

Assay: Stability of polymorphs: competitive slurry of both forms, polymorphic form determined by high throughput pXRD
Type: physicochemical
Experimental: Equal amounts of the polymorph of the invention and the Reference Form A polymorph were stirred in 33% methylcyclohexane/xylene for 4 days at a range of temperatures: 6° C., 35° C., 40° C. and 52° C. After the 4 days, the crystals were isolated and dried and their polymorphic form determined by high throughput pXRD. […] As such, formulations of the polymorph of the invention made and stored at up to 52° C. will be unlikely to show unwanted crystal growth.

| characteristic pXRD reflections in the isolated crystals (equal amounts of both polymorphs stirred in 33% methylcyclohexane/xylene for 4 days, all temperatures (6° C., 35° C., 40° C., 52° C.)) | Structure (SMILES) | stable polymorphic form (equal amounts of both polymorphs stirred in 33% methylcyclohexane/xylene for 4 days at 6° C., 35° C., 40° C. and 52° C., crystals isolated, dried, pXRD) |
| --- | --- | --- |
| absent | CCOC(=O)OC1=C(c2c(C)cc(Cl)cc2C)C(=O)N(C)C12CCN(OC)CC2 [Reference Form A] |  |
|  | CCOC(=O)OC1=C(c2c(C)cc(Cl)cc2C)C(=O)N(C)C12CCN(OC)CC2 [polymorph of the invention] | the stable form over the temperature range studied |
